From patent US20250281497A1, “FUSED AMINO PYRIMIDINE COMPOUNDS FOR TREATMENT OF SEIZURE DISORDERS” (Ovid Therapeutics Inc., priority 2024, published 2025)
Read-outs that look alike come from different tables or passages of the source.

How the values were obtained:
NKCC1 = target: T1, NKCC1 (Homo sapiens, UniProt P55011); assay: Tl+ assay, HEK-293 cells expressing NKCC1; type: cell-based; conditions: read-out: concentration at which effects on NKCC1 were seen (EC50 chart FIG. 1G)
T1 construct: expressed in transfected cells; host or cells: HEK-293
T1 sequence (P55011 1-1212): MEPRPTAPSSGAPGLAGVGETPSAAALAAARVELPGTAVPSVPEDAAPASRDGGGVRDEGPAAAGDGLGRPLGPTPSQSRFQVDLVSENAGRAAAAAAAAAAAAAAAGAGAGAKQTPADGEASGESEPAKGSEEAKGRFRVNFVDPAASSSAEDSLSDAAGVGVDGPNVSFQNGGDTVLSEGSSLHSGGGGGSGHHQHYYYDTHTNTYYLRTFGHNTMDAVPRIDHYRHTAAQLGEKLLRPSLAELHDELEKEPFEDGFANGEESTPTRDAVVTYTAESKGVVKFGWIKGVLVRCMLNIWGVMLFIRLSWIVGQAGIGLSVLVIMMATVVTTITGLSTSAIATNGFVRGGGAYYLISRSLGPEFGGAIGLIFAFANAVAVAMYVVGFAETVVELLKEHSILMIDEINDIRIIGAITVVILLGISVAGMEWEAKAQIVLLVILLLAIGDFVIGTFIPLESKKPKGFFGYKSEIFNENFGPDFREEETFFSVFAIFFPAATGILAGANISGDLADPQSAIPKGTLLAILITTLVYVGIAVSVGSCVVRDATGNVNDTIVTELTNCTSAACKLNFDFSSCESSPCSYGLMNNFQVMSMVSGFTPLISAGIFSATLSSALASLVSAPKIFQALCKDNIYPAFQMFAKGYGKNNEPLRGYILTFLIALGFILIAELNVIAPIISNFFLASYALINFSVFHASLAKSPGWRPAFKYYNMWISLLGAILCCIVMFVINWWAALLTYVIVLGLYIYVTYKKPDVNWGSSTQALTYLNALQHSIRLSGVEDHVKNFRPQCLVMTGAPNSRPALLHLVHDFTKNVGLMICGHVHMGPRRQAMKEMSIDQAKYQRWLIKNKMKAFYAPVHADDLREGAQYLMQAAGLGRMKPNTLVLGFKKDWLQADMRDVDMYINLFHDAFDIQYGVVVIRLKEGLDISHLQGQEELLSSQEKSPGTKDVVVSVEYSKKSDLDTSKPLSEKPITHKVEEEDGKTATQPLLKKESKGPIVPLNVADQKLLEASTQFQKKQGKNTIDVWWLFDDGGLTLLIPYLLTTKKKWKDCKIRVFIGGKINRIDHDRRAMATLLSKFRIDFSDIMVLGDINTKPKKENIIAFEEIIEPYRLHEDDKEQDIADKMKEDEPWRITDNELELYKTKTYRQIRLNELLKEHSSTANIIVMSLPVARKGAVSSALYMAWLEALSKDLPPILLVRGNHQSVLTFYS
Method: FLIPR TI Flux assay. HEK-293 cells were washed with HBSS, and then incubated with loading buffer containing TI sensitive fluorescent dye (https://www.moleculardevices.com), 20 μM bumetanide 20 μM ouabain and 2.5 mM probenecid for 1 h at room temperature (RT) under control conditions or with drugs in the dark using a FlexStation 3 microplate reader (Molecular Devices) and imaged […] for 30 min. Stimulus buffer was added containing 5 mM K^+/0.5 mM Tl^+ and cells were imaged every 1.5 over a 190 second time course The initial rate Tl^+ uptake (Relative Fluorescence Units (RFU) per second) was determined following addition of the stimulus buffer as outlined previously (Conway et at, 2017, supra) (Lee et at, 2022, supra).
Several studies have shown that the activity and plasma membrane accumulation of KCC2 is potentiated via phosphorylation of S940, a process mediated by the activity of protein kinase C and protein phosphatase 1 (Lee et al., 2011, supra; Lee et al., J Biol Chem 282, 29777-29784 (2007); Moore et al., Proc. Natl. Acad. Sci. U.S.A. 115, 10166-10171 (2018); Moore et al., Trends Neurosci. 40, 555-571 (2017); Silayeva et al., Proc. Natl. Acad. Sci. U.S.A. 112, 3523-3528 (2015)). […] Compared to KCC2, effects on KCC3, KCC4, and NKCC1 were only seen at concentrations more than 35-fold that of KCC2 (>100 μM) (FIG. 1G).

hippocampal neurons = assay: Whole cell patch clamp with imposed Cl− load, hippocampal neurons; type: cell-based, Sprague Dawley; conditions: 1 h incubation, 32 mM Cl− load; controls −47.4±2.3
Method: Neuronal Cultures. Hippocampal neurons were prepared from Sprague Dawley E18 embryos and plated at 450,000 per dish and maintained at 37° C. in a humidified 5% CO2 incubator for 10-25 days before experimentation (Lee et al., Nat. Neurosci. 14, 736-743 (2011)).
Neuronal Patch clamp assays. Neuronal cell culture recordings were performed in bath saline at 34° C. For gramicidin perforated-patch experiments, pipettes contained (in mM): 140 KCl and 10 HEPES, pH 7.4 KOH. For whole-cell experiments, pipettes contained (in mM): 115 K-meth-SO^4, 30 KCl, 2 Mg-ATP, 4 Na-ATP, 0.4 Na-GTP, and 10 HEPES, pH 7.4 KOH. Bath saline contained the following (in mM): 140 NaCl, 2.5 KCl, 2.5 CaCl2, 2.5 MgCl2, 10 HEPES, and 11 glucose, pH 7.4 NaOH (Kontou et at, 2021, supra). All compound solutions were applied to cells using a three-barreled 700 μm pipe positioned just above the cell (Warner Instruments). […] All voltages from whole-cell experiments were corrected offline using a calculated liquid junction potential value (13.6 mV) in Clampex (Molecular Devices). For gramicidin perforated-patch experiments, intracellular Cl^− values were back-calculated using measured EGABA values and the Nernst equation: […]
5 min after break-in, an initial EGABA value was determined and the effects of a subsequent 5 min incubation with VU0463271 was assessed.

[1] = PK studies, brain and plasma levels by LC-MS/MS; type: in vivo, mice; conditions: for concentration at 30 min: 25 mg/kg IV bolus, within 30 minutes
Method: PK studies. […] Plasma and brain samples were rapidly frozen on dry ice.
Drug accumulation in the brain was examined following SC injection (FIG. 4C; 50 mg/kg).

For `C[C@@H]1CN(c2nc3c(c(Nc4ccc(C5CCCCC5)cc4)n2)COC3)CCO1` [Compound A, (R)—N-(4-cyclohexylphenyl)-2-(2-methylmorpholino)-5,7-dihydrofuro[3,4-d]pyrimidin-4-amine], which EC50 (NKCC1) is on record?
The EC50 was greater than 100 µM.

And the “basal EGABA” value (hippocampal neurons)?
The value was −59.3±2.1 mV.

And the “time of maximal concentration in brain” value ([1]; 50 mg/kg SC)?
Its value is 4 h.

What about the “brain level 8h after SC injection” value ([1]; 50 mg/kg SC, 8h) of the same compound?
The value was “a level that was maintained 8h later”.

And the “maximal concentration in brain” value ([1]; 50 mg/kg SC, at 4 hr)?
The value was greater than 600 nM.

And the concentration at 2 hr ([1]; mouse, brain, intraperitoneal, 50 mg/kg IP, 2 hr)?
The concentration at 2 hr was 2.67 ± 0.21 µM.

What about the concentration at 4 hr ([1]; mouse, brain, intraperitoneal, 50 mg/kg IP, 4 hr) of the same compound?
The concentration at 4 hr was 4.1 ± 0.13 µM.

And the concentration at 30 min ([1]; mouse, brain, read-out: concentration in brain)?
The concentration at 30 min was 7.6 ± 4.4 µM.

And the concentration at 30 min ([1]; mouse, plasma, read-out: concentration in plasma)?
Its concentration at 30 min is 41.5 ± 11.5 µM.
